≈ marks a conversion by molar mass, not a printed value.
Assays:
[1] = Antiproliferative activity against parental mouse L5178 cells after 72 hrs MTT assay; assay type: functional; conditions: L5178, 72 h, read-out: ID50 (the source's name)
[2] = target: T1, ATP-dependent translocase ABCB1 (Homo sapiens, UniProt P08183); assay: Reversal of P-glycoprotein-mediated multidrug resistance in human MDR1 gene transfected mouse L5178 cells assessed as mean fluorescence intensity at 40 ug/ml by rhodamine-123 exclusion test; assay type: cell-based
[3] = Antiproliferative activity against multidrug-resistant mouse L5178 cells after 72 hrs MTT assay; assay type: functional; conditions: L5178, 72 h, read-out: ID50 (the source's name)
[4] = target: T1, ATP-dependent translocase ABCB1; assay: Reversal of P-glycoprotein-mediated multidrug resistance in human MDR1 gene transfected mouse L5178 cells assessed as mean fluorescence intensity at 4 ug/ml by rhodamine-123 exclusion test; assay type: cell-based
[5] = Lipophilicity, log P of the compound; assay type: physicochemical; conditions: octanol/water
[6] = target: T1, ATP-dependent translocase ABCB1; assay: Reversal of P-glycoprotein-mediated multidrug resistance in human MDR1 gene transfected mouse L5178 cells assessed as fluorescence activity ratio at 4 ug/ml by rhodamine-123 exclusion test; assay type: cell-based
[7] = target: T1, ATP-dependent translocase ABCB1; assay: Reversal of P-glycoprotein-mediated multidrug resistance in human MDR1 gene transfected mouse L5178 cells assessed as fluorescence activity ratio at 40 ug/ml by flow cytometry; assay type: cell-based
[8] = Potentiation of epirubicin-induced cytotoxicity against mouse L5178 cells assessed as fractional inhibitory index by checkerboard microplate method; assay type: functional

T1 sequence (P08183 whole entry): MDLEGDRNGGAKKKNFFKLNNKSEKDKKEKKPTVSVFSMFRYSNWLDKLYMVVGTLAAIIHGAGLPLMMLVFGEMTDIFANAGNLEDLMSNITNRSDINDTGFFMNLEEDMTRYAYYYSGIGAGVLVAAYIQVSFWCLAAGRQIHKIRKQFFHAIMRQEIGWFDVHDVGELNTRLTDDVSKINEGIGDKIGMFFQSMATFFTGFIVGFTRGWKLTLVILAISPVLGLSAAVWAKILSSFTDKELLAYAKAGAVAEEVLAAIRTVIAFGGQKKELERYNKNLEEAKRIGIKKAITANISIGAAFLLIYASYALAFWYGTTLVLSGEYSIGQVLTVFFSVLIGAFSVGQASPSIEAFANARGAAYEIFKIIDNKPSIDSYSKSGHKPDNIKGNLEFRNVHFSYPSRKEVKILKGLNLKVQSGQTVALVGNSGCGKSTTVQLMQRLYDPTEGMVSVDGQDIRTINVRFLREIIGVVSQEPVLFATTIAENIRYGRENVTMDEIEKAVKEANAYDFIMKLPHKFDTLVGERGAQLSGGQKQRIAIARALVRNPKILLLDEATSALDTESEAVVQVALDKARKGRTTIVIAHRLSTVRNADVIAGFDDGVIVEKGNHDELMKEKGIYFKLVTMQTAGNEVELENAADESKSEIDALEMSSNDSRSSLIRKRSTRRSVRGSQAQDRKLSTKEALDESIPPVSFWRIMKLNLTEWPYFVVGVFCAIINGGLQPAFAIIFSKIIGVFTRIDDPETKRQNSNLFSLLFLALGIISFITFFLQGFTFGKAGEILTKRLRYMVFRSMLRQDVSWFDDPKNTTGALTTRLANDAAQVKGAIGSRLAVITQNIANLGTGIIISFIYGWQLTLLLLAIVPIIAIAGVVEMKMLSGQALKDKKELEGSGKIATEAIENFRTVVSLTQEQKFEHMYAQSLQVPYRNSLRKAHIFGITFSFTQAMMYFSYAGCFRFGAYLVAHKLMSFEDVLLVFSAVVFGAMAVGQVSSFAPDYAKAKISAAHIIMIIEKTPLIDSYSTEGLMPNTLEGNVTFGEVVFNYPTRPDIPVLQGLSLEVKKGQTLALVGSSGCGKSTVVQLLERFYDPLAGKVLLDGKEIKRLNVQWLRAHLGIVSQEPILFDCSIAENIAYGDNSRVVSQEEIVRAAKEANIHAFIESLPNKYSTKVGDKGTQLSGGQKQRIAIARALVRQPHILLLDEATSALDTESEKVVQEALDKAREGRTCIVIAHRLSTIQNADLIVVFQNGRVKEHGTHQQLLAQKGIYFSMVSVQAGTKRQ

In the case of `CCC(=O)OC[C@H]1C[C@]2(OC(=O)/C=C/c3ccccc3)C(=O)/C(C)=C/[C@@H]3[C@H](CC[C@@]4(C)O[C@@H]4[C@H]2[C@H]1OC(=O)CC)C3(C)C` [LATILAGASCENE H], the IC50 [1] is reported as 25.3 µg/mL (≈ 42.7 µM), the Flu intensity [2] is reported as 541.3 and the IC50 [3] is reported as 17.5 µg/mL (≈ 29.5 µM). For the same compound, the Flu intensity [4] was 427.4, the logP [5] was 6.9 and the Ratio [6] was 61.6. For the same compound, the Ratio [7] was 78 and the “fractional inhibitory concentration index (FICI)” value [8] was 0.07.
For `CCCC(=O)OC[C@H]1C[C@]2(OC(=O)/C=C/c3ccccc3)C(=O)/C(C)=C/[C@@H]3[C@H](CC[C@@]4(C)O[C@@H]4[C@H]2[C@H]1OC(=O)CCC)C3(C)C` [LATILAGASCENE I], the IC50 [1] was 23.9 µg/mL (≈ 38.5 µM), the Flu intensity [2] was 376.5 and the IC50 [3] was 17.3 µg/mL (≈ 27.9 µM). It also gave a Flu intensity [4] of 433.4, a logP [5] of 8 and a Ratio [6] of 62.4. The Ratio [7] was 54.2 and the “fractional inhibitory concentration index (FICI)” value [8] was 0.14.
For `C=C1[C@@H](OC(=O)C(C)C)[C@@H](OC(C)=O)C(=O)C(C)(C)/C=C/[C@H](C)[C@H](OC(=O)c2ccccc2)[C@@]2(O)C[C@H](C)[C@H](OC(C)=O)[C@@H]2[C@H]1OC(C)=O` [TUCKEYANOL B], the IC50 [1] was 19.4 µg/mL (≈ 28.3 µM), the Flu intensity [2] was 1353.2 and the IC50 [3] was 12 µg/mL (≈ 17.5 µM). For the same compound, the Flu intensity [4] was 347.6, the logP [5] was 4 and the Ratio [6] was 25. The Ratio [7] was 97.3 and the “fractional inhibitory concentration index (FICI)” value [8] was 0.25.
For `CC(=O)O[C@H]1[C@@H](COC(=O)c2ccccc2)C[C@]2(OC(=O)/C=C/c3ccccc3)C(=O)/C(C)=C/[C@@H]3[C@H](CC[C@@]4(C)O[C@@H]4[C@@H]12)C3(C)C` [LATILAGASCENE G], the IC50 [1] was 32.2 µg/mL (≈ 51.4 µM), the Flu intensity [2] was 496.6 and the IC50 [3] was 28 µg/mL (≈ 44.7 µM). The Flu intensity [4] was 478.3, the logP [5] was 7.9 and the Ratio [6] was 68.9. For the same compound, the Ratio [7] was 71.6 and the “fractional inhibitory concentration index (FICI)” value [8] was 0.14.
`C=C1[C@@H](OC(=O)C(C)CC)[C@@H](OC(C)=O)C(=O)C(C)(C)/C=C/[C@H](C)[C@H](OC(=O)c2ccccc2)[C@@]2(O)C[C@H](C)[C@H](OC(C)=O)[C@@H]2[C@H]1OC(C)=O` (stereo not given in full) [TUCKEYANOL A] gave an IC50 [1] of 25.8 µg/mL (≈ 36.9 µM), a Flu intensity [2] of 1375.6 and an IC50 [3] of 17.6 µg/mL (≈ 25.2 µM). The Flu intensity [4] was 554, the logP [5] was 4.5 and the Ratio [6] was 39.8. The Ratio [7] was 98.9 and the “fractional inhibitory concentration index (FICI)” value [8] was 0.18.
In the case of `C=C1[C@@H](OC(=O)c2ccccc2)[C@@H](OC(C)=O)[C@@H](OC(C)=O)C(C)(C)/C=C/[C@H](C)C(=O)[C@@]2(OC(C)=O)C[C@@](C)(OC(=O)c3ccccc3)[C@H](OC(C)=O)[C@@H]2[C@H]1OC(C)=O` [EUPHOTUCKEYANOL], the IC50 [1] is reported as 45 µg/mL (≈ 55 µM), the Flu intensity [2] is reported as 1476.7 and the IC50 [3] is reported as 22.8 µg/mL (≈ 27.8 µM). The Flu intensity [4] was 1127.4, the logP [5] was 6.7 and the Ratio [6] was 81. The Ratio [7] was 106.2 and the “fractional inhibitory concentration index (FICI)” value [8] was 0.08.
Work on `CC(=O)OC[C@H]1C[C@]2(OC(=O)/C=C/c3ccccc3)C(=O)/C(C)=C/[C@@H]3[C@H](CC[C@@]4(C)O[C@@H]4[C@H]2[C@H]1OC(C)=O)C3(C)C` [LATILAGASCENE C] yielded a logP [5] of 6.2.
Compound `C/C1=C\[C@@H]2[C@H](CC[C@@]3(C)O[C@@H]3[C@H]3[C@@H](O)[C@@H](CO)C[C@]3(OC(=O)/C=C/c3ccccc3)C1=O)C2(C)C` [LATILAGASCENE B] has a logP [5] of 4.8.
Compound `C/C1=C\[C@@H]2[C@H](CC[C@@]3(C)O[C@@H]3[C@H]3[C@@H](O)[C@@H](COC(=O)c4ccccc4)C[C@]3(OC(=O)/C=C/c3ccccc3)C1=O)C2(C)C` [LATILAGASCENE D] has a logP [5] of 7.2.
`CC(=O)OC[C@H]1C[C@]2(OC(=O)/C=C/c3ccccc3)C(=O)/C(C)=C/[C@@H]3[C@H](CC[C@@]4(C)O[C@@H]4[C@H]2[C@H]1O)C3(C)C` [LATILAGASCENE A] gave a logP [5] of 5.5.
Compound `CC1(C)[C@@H]2/C=C(\CO)C(=O)[C@@]3(OC(=O)/C=C/c4ccccc4)C[C@H](COC(=O)c4ccccc4)[C@H](O)[C@@H]3[C@H]3O[C@]3(C)CC[C@@H]21` [LATILAGASCENE E] has a logP [5] of 5.9.
`C/C1=C\[C@@H]2[C@H](CC[C@@]3(C)O[C@@H]3[C@H]3[C@@H](O)[C@@H](C)C[C@]3(OC(=O)/C=C/c3ccccc3)C1=O)C2(C)C` [JOLKINOL B] gave a logP [5] of 5.8.
For `C/C1=C\[C@@H]2[C@H](CC[C@@]3(C)O[C@@H]3[C@H]3[C@@H](O)[C@@H](C)C[C@]3(OC(=O)c3ccccc3)C1=O)C2(C)C` [LATILAGASCENE F], the logP [5] was 5.3.
